Source: US12521438B2, “SMARCA degraders and uses thereof” (Kymera Therapeutics, Inc., priority 2019, dated 2026)

Key:
SMARCA2 = SMARCA2 (Homo sapiens, UniProt P51531); assay: MSD SMARCA2 degradation in A549 cell line; assay type: cell-based; design: endogenous in cells; host or cells: A549; conditions: A549 cells, 24 hours; for DC50: read-out: SMARCA2 MSD A549 degradation 24h: Average external-Abs DC50
Description: Example 9. MSD SMARCA2 Degradation in A549 Cell Line
Cells were seeded into 96-well plates (A549 cells: 2×10^4 cells/well/100 ul media) abd incubated overnight. The next day, 200 nl compound were added into the intermediate plate with Echo (Labcyte 550) from source plate containing a 3-fold serial dilution from top concentration of 1 mM. The culture medium was changed with 80 ul of fresh medium and 80 ul of 2× compound solution was added into the well to make a final concentration of 1000 nM, 333.3 nM, 111.1 nM, 37.04 nM, 12.35 nM, 4.115 nM, 1.372 nM, 0.457 nM, 0.152 nM and 0 nM (DMSO). The wells were mixed and then incubated for 24 hours. The media was aspirated from the cultures and 60 ul pre-chilled PIPA lysis buffer (Boston BioProducts BP-115D) with protease/phosphatase inhibitor (Roche 05892791001/Roche 04906837001) was added into the well to lyze the cells for 20 minutes at 4° C. The MSD plate (L15XA) was coated with 40 ul cell lysate and incubated at 4° C. overnight. The next day, the plate was washed three times with TBST (CST #9997S), 150 ul/well. The MSD plates was blocked with 150 ul blocking buffer per well and shaked for 1 hr at RT, 600 rpm. The blocking buffer was 3% Blocker A (MSD, R93BA-4) in TBST. The MSD plate was washed three times with 150 ul/well of TBST and 25 ul/well of detection antibody (Rabbit anti-SMARCA2/BRM antibody, 100 μg/ml, ab223735) was added at final concentration of 1 ug/ml diluted in 1% Blocking buffer and shaken for 1 hour at RT, 600 rpm. The MSD plate was washed three times with 150 ul/well of TBST and 25 ul/well of SULFO-TAG anti-rabbit antibody (MSD, R32AB-1) was added at final concentration of 1 ug/ml diluted in 1% Blocking buffer and shaken for 1 hour at RT, 600 rpm. The MSD plate was washed three times with 150 ul/well of TBST and 150 ul/well of 2×MSD reading buffer diluted from 4× (MSD, R92TC-2) with water was added. Lastly, the MSD instrument was read.

SMARCA4 = molecular target: T1, SMARCA4 (Homo sapiens, UniProt P51532); assay: SMARCA4 Western blot MV4-11 degradation; assay type: cell-based; conditions: MV4-11 cells, 24 hours; for Dmax: read-out: SMARCA4 WB MV411 degradation 24h: Average Dmax %; for DC50: read-out: SMARCA4 WB MV411 degradation 24h: Average external-Abs DC50
T1 construct: endogenous in cells; host or cells: MV4-11
Description: Example 10. SMARCA2 and SMARCA 4 Western Blot MV4-11 Degradation
Cells were seeded into 6-well plates (MV4-11: 4×10^6 cells/well/1 ml) and 1 ml of 2× compound solution was added into the well to make the final concentration and the plates were mixed well and incubated for 24 hours (No cytotoxicity was observed). The cell were collected with media and spun at 3000 rpm for 5 minutes. The supernatant was aspirated and the well and the cells were washed with cold PBS once and combined for centrifugation again; the supernatant aspirated again. 200 ul pre-chilled RIPAlysis buffer (Boston BioProducts BP-115D) with protease/phosphatase inhibitor (Roche 05892791001/Roche 04906837001) was directly added into the tube to lyze the cells for 20 minutes on ice. The cell lysate were collected into EP tubes and spun at 13000 rpm for 20 minutes and 72 ul supernatant was transferred to a fresh EP tube containing 18 ul of 5× loading buffer (Beyotime Bio P0015) to make the loading samples. The samples were heated to 100° C. for 10 minutes and cooled to RT and microcentrifuged. 20 ul of samples were loaded onto SDS-PAGE gel (Novex, WG1402BOX) and the gel was run at 80 V for 20 minutes and 120 V for 1.5 hours. The samples were electrotransfer to a NC membrane using wet-transfer method with 250 mA for 2.5 hours. The membrane was blocked with LICOR blocking buffer (LI-COR, 927-50000) for 1 hour. The membrane was washed three times with TBST (CST #9997S), 5 minutes each. Incubation was performed with primary antibody prepared in blocking buffer with 0.1% Tween-20 (Solarbio, P8220) at 4° C. overnight (Anti-SMARCA2/BRM antibody (ab15597) 1:500; Anti-BRG1 antibody [EPR3912] (ab108318) 1:1000; Rabbit anti-Baf180 antibody [EPR15860] (Abcam,ab196022) 1:1000; mouse anti-beta-Actin (8H10D10) (CST #3700) 1:10000). The membrane was washed three times with TBST, 5 minutes each. Incubation with secondary antibody was performed for 1 hour at RT (anti-rabbit IgG (Licor, 926-32211) 1:5000; anti-mouse IgG (LI-COR, 926-68070) 1:5000). The membrane was washed three times with 5 minutes each and lastly the LiCOR was read.

Sequence of SMARCA2 (P51531 whole entry): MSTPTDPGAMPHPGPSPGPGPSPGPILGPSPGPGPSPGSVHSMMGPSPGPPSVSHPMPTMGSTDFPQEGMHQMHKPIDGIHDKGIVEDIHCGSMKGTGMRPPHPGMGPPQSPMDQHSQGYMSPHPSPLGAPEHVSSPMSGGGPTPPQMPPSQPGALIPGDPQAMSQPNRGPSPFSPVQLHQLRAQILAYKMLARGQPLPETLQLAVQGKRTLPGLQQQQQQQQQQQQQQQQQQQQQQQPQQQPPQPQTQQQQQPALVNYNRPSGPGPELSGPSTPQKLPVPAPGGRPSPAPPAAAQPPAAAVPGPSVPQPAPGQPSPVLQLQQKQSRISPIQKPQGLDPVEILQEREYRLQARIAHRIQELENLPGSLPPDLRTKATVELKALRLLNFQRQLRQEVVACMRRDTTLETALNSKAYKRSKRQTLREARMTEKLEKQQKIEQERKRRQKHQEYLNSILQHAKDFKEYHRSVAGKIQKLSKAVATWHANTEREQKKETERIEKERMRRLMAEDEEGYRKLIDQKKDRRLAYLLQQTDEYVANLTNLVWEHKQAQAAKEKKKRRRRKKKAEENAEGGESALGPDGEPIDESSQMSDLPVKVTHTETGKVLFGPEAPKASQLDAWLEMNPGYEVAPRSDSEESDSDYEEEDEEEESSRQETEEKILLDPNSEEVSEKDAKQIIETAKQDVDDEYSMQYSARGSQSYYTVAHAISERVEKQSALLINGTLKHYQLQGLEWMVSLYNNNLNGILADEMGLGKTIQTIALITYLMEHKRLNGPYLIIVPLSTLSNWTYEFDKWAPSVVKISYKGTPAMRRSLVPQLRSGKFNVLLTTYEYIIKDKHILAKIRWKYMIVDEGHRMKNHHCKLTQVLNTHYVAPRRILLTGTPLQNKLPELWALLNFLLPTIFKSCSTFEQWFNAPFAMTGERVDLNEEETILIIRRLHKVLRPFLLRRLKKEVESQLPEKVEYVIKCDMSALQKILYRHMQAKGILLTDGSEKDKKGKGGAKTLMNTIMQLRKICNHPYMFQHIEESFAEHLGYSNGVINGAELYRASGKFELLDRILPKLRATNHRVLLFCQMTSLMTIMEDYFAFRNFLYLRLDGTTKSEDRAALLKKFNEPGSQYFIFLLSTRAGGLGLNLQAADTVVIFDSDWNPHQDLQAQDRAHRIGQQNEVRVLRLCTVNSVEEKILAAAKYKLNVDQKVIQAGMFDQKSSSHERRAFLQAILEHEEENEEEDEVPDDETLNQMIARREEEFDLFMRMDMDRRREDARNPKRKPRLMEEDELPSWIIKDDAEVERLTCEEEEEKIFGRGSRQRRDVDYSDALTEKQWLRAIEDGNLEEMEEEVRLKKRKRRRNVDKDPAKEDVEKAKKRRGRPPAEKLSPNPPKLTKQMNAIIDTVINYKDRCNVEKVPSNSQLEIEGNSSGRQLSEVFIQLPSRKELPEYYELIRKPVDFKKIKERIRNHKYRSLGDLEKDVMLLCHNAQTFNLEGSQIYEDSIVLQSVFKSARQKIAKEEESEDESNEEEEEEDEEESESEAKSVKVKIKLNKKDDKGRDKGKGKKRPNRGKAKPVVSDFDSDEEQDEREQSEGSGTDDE
T1 sequence (P51532 whole entry): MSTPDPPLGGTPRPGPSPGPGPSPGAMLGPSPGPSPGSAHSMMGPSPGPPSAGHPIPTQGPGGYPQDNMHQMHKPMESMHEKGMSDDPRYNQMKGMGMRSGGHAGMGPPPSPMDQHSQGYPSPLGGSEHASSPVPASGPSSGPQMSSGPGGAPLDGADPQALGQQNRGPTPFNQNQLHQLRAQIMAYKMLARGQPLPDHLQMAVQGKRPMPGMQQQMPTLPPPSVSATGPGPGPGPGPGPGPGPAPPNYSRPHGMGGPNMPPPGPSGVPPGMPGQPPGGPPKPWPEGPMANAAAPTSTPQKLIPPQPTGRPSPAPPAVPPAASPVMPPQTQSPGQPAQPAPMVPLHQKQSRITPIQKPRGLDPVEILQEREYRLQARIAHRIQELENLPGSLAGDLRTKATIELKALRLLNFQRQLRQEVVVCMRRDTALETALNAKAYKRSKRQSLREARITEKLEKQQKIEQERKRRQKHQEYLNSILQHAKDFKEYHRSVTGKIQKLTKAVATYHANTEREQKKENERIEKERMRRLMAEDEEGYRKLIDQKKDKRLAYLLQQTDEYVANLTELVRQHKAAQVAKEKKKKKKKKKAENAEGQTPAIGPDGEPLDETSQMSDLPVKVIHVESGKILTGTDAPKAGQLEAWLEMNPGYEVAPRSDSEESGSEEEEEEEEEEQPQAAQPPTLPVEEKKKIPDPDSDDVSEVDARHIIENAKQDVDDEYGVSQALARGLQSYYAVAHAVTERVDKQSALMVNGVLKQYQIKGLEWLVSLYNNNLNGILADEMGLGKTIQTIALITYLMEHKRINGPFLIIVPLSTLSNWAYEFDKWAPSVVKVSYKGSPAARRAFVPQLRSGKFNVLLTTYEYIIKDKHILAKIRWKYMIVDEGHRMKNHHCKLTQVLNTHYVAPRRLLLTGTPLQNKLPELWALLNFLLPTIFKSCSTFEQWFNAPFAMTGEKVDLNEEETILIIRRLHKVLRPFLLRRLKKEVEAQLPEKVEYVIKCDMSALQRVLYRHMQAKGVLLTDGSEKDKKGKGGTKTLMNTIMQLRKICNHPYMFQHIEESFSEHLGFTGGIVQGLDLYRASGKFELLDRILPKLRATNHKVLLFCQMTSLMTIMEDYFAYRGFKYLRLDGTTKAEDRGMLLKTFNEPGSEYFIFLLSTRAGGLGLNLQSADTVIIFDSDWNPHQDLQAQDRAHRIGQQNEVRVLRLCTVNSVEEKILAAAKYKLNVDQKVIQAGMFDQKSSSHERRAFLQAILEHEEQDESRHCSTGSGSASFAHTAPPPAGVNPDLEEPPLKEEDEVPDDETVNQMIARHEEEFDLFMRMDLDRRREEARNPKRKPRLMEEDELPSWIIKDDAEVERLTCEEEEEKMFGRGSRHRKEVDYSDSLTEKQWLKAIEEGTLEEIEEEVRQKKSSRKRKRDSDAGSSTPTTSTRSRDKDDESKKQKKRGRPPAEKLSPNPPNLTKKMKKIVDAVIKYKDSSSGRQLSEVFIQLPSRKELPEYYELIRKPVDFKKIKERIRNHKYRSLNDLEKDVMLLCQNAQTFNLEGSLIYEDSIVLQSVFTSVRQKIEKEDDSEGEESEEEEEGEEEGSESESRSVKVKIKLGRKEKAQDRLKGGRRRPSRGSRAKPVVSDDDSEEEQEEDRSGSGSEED

| Dmax (SMARCA2) | DC50 (SMARCA2) | Dmax (SMARCA4) | DC50 (SMARCA4) | Compound |
| --- | --- | --- | --- | --- |
| < 50% | > 1000 nM | – | – | CN(CCCc1cnc(N2CCC(c3c[nH]c4nnc(-c5ccccc5O)cc34)CC2)nc1)CCCc1ccc2c(c1)n(C)c(=O)n2C1CCC(=O)NC1=O (stereo not drawn) [I-2] |
| < 50% | > 1000 nM | – | – | CN(CC#Cc1cnc(N2CCC(c3c[nH]c4nnc(-c5ccccc5O)cc34)CC2)nc1)CCCc1ccc2c(c1)n(C)c(=O)n2C1CCC(=O)NC1=O (stereo not drawn) [I-3] |
| 70 to 90% | 501 to 1000 nM | > 90% | < 100 nM | Cc1ncsc1-c1ccc(CNC(=O)[C@@H]2C[C@@H](O)CN2C(=O)[C@@H](NC(=O)[C@H]2CC[C@@H](c3cnc(N4CCC(c5c[nH]c6nnc(-c7ccccc7O)cc56)CC4)nc3)CC2)C(C)(C)C)cc1 [I-45, (2S,4R)-4-hydroxy-1-((S)-2-((1s,4R)-4-(2-(4-(3-(2-hydroxyphenyl)-7H-pyrrolo[2,3-c]pyridazin-5-yl)piperidin-1-yl)pyrimidin-5-yl)cyclohexanecarboxamido)-3,3-dimethylbutanoyl)-N-(4-(4-methylthiazol-5-yl)benzyl)pyrrolidine-2-carboxamide] |
| < 50% | > 1000 nM | 70 to 90% | > 1000 nM | Cc1ncsc1-c1ccc(CNC(=O)[C@@H]2C[C@@H](O)CN2C(=O)[C@@H](NC(=O)C2(F)CC2)C(C)(C)C)c(OCCN2CCC(c3c[nH]c4nnc(-c5ccccc5O)cc34)CC2)c1 [I-47, (2S,4R)-1-((S)-2-(1-fluorocyclopropanecarboxamido)-3,3-dimethylbutanoyl)-4-hydroxy-N-(2-(2-(4-(3-(2-hydroxyphenyl)-7H-pyrrolo[2,3-c]pyridazin-5-yl)piperidin-1-yl)ethoxy)-4-(4-methylthiazol-5-yl)benzyl)pyrrolidine-2-carboxamide] |
| < 50% | > 1000 nM | < 50% | 501 to 1000 nM | Cc1ncsc1-c1ccc(CNC(=O)[C@@H]2C[C@@H](O)CN2C(=O)[C@@H](NC(=O)C2(F)CC2)C(C)(C)C)c(OCCCCCCN2CCC(c3c[nH]c4nnc(-c5ccccc5O)cc34)CC2)c1 [I-48] |
| < 50% | > 1000 nM | 70 to 90% | > 1000 nM | Cc1ncsc1-c1ccc(CNC(=O)[C@@H]2C[C@@H](O)CN2C(=O)[C@@H](NC(=O)C2(F)CC2)C(C)(C)C)c(OCCCCCCCCN2CCC(c3c[nH]c4nnc(-c5ccccc5O)cc34)CC2)c1 [I-49] |
| < 50% | > 1000 nM | < 50% | > 1000 nM | Cc1ncsc1-c1ccc(CNC(=O)[C@@H]2C[C@@H](O)CN2C(=O)[C@@H](NC(=O)CN(C)Cc2cnc(N3CCC(c4c[nH]c5nnc(-c6ccccc6O)cc45)CC3)nc2)C(C)(C)C)cc1 [I-50] |
| < 50% | > 1000 nM | < 50% | > 1000 nM | Cc1ncsc1-c1ccc(CNC(=O)[C@@H]2C[C@@H](O)CN2C(=O)[C@@H](NC(=O)CCCN(C)Cc2cnc(N3CCC(c4c[nH]c5nnc(-c6ccccc6O)cc45)CC3)nc2)C(C)(C)C)cc1 [I-51] |
| < 50% | > 1000 nM | 50 to 70% | > 1000 nM | Cc1ncsc1-c1ccc(CNC(=O)[C@@H]2C[C@@H](O)CN2C(=O)[C@@H](NC(=O)CCCCCN(C)Cc2cnc(N3CCC(c4c[nH]c5nnc(-c6ccccc6O)cc45)CC3)nc2)C(C)(C)C)cc1 [I-52, (2S,4R)-4-hydroxy-1-((S)-2-(6-(((2-(4-(3-(2-hydroxyphenyl)-7H-pyrrolo[2,3-c]pyridazin-5-yl)piperidin-1-yl)pyrimidin-5-yl)methyl)(methyl)amino)hexanamido)-3,3-dimethylbutanoyl)-N-(4-(4-methylthiazol-5-yl)benzyl)pyrrolidine-2-carboxamide] |
| 70 to 90% | 501 to 1000 nM | 70 to 90% | < 100 nM | Cc1ncsc1-c1ccc(CNC(=O)[C@@H]2C[C@@H](O)CN2C(=O)[C@@H](NC(=O)CN2CCC(c3cnc(N4CCC(c5c[nH]c6nnc(-c7ccccc7O)cc56)CC4)nc3)CC2)C(C)(C)C)cc1 [I-53] |
